Measured values published in patent publication US12059420B2 (BRISTOL-MYERS SQUIBB COMPANY, priority 2018, dated 2024).

molecular target: T1, human IDO1 (Homo sapiens, UniProt P14902); assay: IDO inhibition assay in HEK293 cells stably expressing human IDO1 (kynurenine production, Ehrlich reagent, absorbance 490 nm); type: cell-based; conditions: 20 hours incubation with compound, 500 nM reference standard = 100% inhibition, read-out: IDO1 HEK Human IC50
T1 construct: expressed in transfected cells
T1 sequence (P14902 whole entry): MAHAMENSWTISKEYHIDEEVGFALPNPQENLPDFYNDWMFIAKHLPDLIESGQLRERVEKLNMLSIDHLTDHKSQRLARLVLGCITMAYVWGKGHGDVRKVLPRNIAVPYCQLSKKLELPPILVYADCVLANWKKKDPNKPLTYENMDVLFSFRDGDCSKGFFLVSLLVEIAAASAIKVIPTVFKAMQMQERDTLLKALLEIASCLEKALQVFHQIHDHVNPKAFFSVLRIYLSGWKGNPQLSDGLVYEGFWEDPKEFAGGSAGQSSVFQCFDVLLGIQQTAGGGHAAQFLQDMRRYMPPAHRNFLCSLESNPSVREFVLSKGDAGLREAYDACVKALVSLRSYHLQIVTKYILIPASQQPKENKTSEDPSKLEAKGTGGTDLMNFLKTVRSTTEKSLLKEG
Method in brief: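 HEK293 clones stably expressing human IDO1 (10,000 cells/well, phenol red-free RPMI, 10% FBS) were treated with compound for 20 hours at 37° C. After 0.2% TCA and 30 min at 50° C., kynurenine was read with Ehrlich reagent at 490 nm. IC50 was normalised to DMSO (0%) and 500 nM reference standard (100%).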

| SMILES | IC50 |
| --- | --- |
| CC(C)CN(Cc1ccccc1)c1cc(Nc2ncccc2F)cc(-c2ccccc2-c2nnn[nH]2)n1 [Example 178, 6-(2-(1H-tetrazol-5-yl)phenyl)-N2-benzyl-N4-(3-fluoropyridin-2-yl)-N2-isobutylpyridine-2,4-diamine] | 58.4 nM |
| CC(C)CN(Cc1ccccc1)c1cc(Nc2ccccc2F)cc(-c2ccccc2-c2nnn[nH]2)n1 [Example 179, 6-(2-(1H-tetrazol-5-yl)phenyl)-N2-benzyl-N4-(2-fluorophenyl)-N2-isobutylpyridine-2,4-diamine] | 10.9 nM |
| CC(C)CN(Cc1ccccc1)c1cc(Nc2ccc(Cl)cc2F)cc(-c2ccccc2-c2nnn[nH]2)n1 [Example 180, 6-(2-(1H-tetrazol-5-yl)phenyl)-N2-benzyl-N4-(4-chloro-2-fluorophenyl)-N2-isobutylpyridine-2,4-diamine] | 2.2 nM |
| CC(C)CN(Cc1ccccc1)c1cc(Nc2ccc(F)c(F)c2)cc(-c2ccccc2-c2nnn[nH]2)n1 [Example 181, 6-(2-(1H-tetrazol-5-yl)phenyl)-N2-benzyl-N4-(3,4-difluorophenyl)-N2-isobutylpyridine-2,4-diamine] | 4.3 nM |
| CC(C)CN(Cc1ccccc1)c1cc(Nc2ccc3c(c2)OC(F)(F)O3)cc(-c2ccccc2-c2nnn[nH]2)n1 [Example 182, 6-(2-(1H-tetrazol-5-yl)phenyl)-N2-benzyl-N4-(2,2-difluorobenzo[d][1,3]dioxol-5-yl)-N2-isobutylpyridine-2,4-diamine] | 9.5 nM |
| Cc1cc(F)cnc1Nc1cc(-c2ccccc2-c2nnn[nH]2)nc(N(Cc2ccccc2)CC(C)C)c1 [Example 183, 6-(2-(1H-tetrazol-5-yl)phenyl)-N2-benzyl-N4-(5-fluoro-3-methylpyridin-2-yl)-N2-isobutylpyridine-2,4-diamine] | 129 nM |
| CC(C)CN(Cc1ccccc1)c1cc(Nc2cc(F)ccc2C(=O)O)cc(-c2ccccc2-c2nnn[nH]2)n1 [Example 185, 2-((2-(2-(1H-tetrazol-5-yl)phenyl)-6-(benzyl(isobutyl)amino)pyridin-4-yl)amino)-4-fluorobenzoic acid] | 2740 nM |
| COc1ccc(Nc2cc(-c3ccccc3-c3nnn[nH]3)nc(N(Cc3ccccc3)CC(C)C)c2)c(F)c1 [Example 186, 6-(2-(1H-tetrazol-5-yl)phenyl)-N2-benzyl-N4-(2-fluoro-4-methoxyphenyl)-N2-isobutylpyridine-2,4-diamine] | 3.5 nM |
| Cc1ccc(Nc2cc(-c3ccccc3-c3nnn[nH]3)nc(N(Cc3ccccc3)CC(C)C)c2)c(C#N)c1 [Example 187, 2-((2-(2-(1H-tetrazol-5-yl)phenyl)-6-(benzyl(isobutyl)amino)pyridin-4-yl)amino)-5-methylbenzonitrile] | 101 nM |
| COc1cc(Nc2cc(-c3ccccc3-c3nnn[nH]3)nc(N(Cc3ccccc3)CC(C)C)c2)ccc1Cl [Example 188, 6-(2-(1H-tetrazol-5-yl)phenyl)-N2-benzyl-N4-(4-chloro-3-methoxyphenyl)-N2-isobutylpyridine-2,4-diamine] | 2 nM |
| CC(C)CN(Cc1ccccc1)c1cc(Nc2cccc(OC(F)(F)C(F)F)c2)cc(-c2ccccc2-c2nnn[nH]2)n1 [Example 189, 6-(2-(1H-tetrazol-5-yl)phenyl)-N2-benzyl-N2-isobutyl-N4-(3-(1,1,2,2-tetrafluoroethoxy)phenyl)pyridine-2,4-diamine] | 9.3 nM |
| COc1cc(Nc2cc(-c3ccccc3-c3nnn[nH]3)nc(N(Cc3ccccc3)CC(C)C)c2)ccc1F [Example 190, 6-(2-(1H-tetrazol-5-yl)phenyl)-N2-benzyl-N4-(4-fluoro-3-methoxyphenyl)-N2-isobutylpyridine-2,4-diamine] | 8.5 nM |
| CC(C)CN(Cc1ccccc1)c1cc(Nc2cccc(C(F)F)c2)cc(-c2ccccc2-c2nnn[nH]2)n1 [Example 191, 6-(2-(1H-tetrazol-5-yl)phenyl)-N2-benzyl-N4-(3-(difluoromethyl)phenyl)-N2-isobutylpyridine-2,4-diamine] | 26.4 nM |
| CC(C)CN(Cc1ccccc1)c1cc(Nc2cccc(C#N)c2)cc(-c2ccccc2-c2nnn[nH]2)n1 [Example 192, 3-((2-(2-(1H-tetrazol-5-yl)phenyl)-6-(benzyl(isobutyl)amino)pyridin-4-yl)amino)benzonitrile] | 19.8 nM |
| CC(C)CN(Cc1ccccc1)c1cc(Nc2cccc(OC(F)(F)F)c2)cc(-c2ccccc2-c2nnn[nH]2)n1 [Example 193, 6-(2-(1H-tetrazol-5-yl)phenyl)-N2-benzyl-N2-isobutyl-N4-(3-(trifluoromethoxy)phenyl)pyridine-2,4-diamine] | 14.1 nM |
| CC(C)CN(Cc1ccccc1)c1cc(Nc2ccccc2C#N)cc(-c2ccccc2-c2nnn[nH]2)n1 [Example 194, 2-((2-(2-(1H-tetrazol-5-yl)phenyl)-6-(benzyl(isobutyl)amino)pyridin-4-yl)amino)benzonitrile] | 230 nM |
| CC(C)CN(Cc1ccccc1)c1cc(Nc2cccc(C(F)F)n2)cc(-c2ccccc2-c2nnn[nH]2)n1 [Example 195, 6-(2-(1H-tetrazol-5-yl)phenyl)-N2-benzyl-N4-(6-(difluoromethyl)pyridin-2-yl)-N2-isobutylpyridine-2,4-diamine] | 19.8 nM |

| SMILES | IC50 |
| --- | --- |
| COc1cccc(Nc2cc(-c3ccccc3-c3nnn[nH]3)nc(N(Cc3ccccc3)CC(C)C)c2)c1 [Example 196, 6-(2-(1H-tetrazol-5-yl)phenyl)-N2-benzyl-N2-isobutyl-N4-(3-methoxyphenyl)pyridine-2,4-diamine] | 7 nM |
| COc1cc(F)cc(Nc2cc(-c3ccccc3-c3nnn[nH]3)nc(N(Cc3ccccc3)CC(C)C)c2)c1 [Example 197, 6-(2-(1H-tetrazol-5-yl)phenyl)-N2-benzyl-N4-(3-fluoro-5-methoxyphenyl)-N2-isobutylpyridine-2,4-diamine] | 5.8 nM |
| COc1ccc(Nc2cc(-c3ccccc3-c3nnn[nH]3)nc(N(Cc3ccccc3)CC(C)C)c2)cc1C(N)=O [Example 198, 5-((2-(2-(1H-tetrazol-5-yl)phenyl)-6-(benzyl(isobutyl)amino)pyridin-4-yl)amino)-2-methoxybenzamide] | 2960 nM |
| CCCN(Cc1ccccc1)c1cc(NC(=O)Cc2cncc(Br)c2)cc(-c2ccccc2-c2nn[nH]n2)n1 [Example 199, N-(2-(2-(2H-tetrazol-5-yl)phenyl)-6-(benzyl(propyl)amino)-yl)-2-(5-bromopyridin-3-yl)acetamide] | 239 nM |
| CCCN(Cc1ccccc1)c1cc(NC(=O)Cc2cccc3ccccc23)cc(-c2ccccc2-c2nn[nH]n2)n1 [Example 200, N-(2-(2-(2H-tetrazol-5-yl)phenyl)-6-(benzyl(propyl)amino)pyridin-4-yl)-2-(naphthalen-1-yl)acetamide] | 82.4 nM |
| CCCN(Cc1ccccc1)c1cc(NC(=O)Cc2ccc3ccccc3c2)cc(-c2ccccc2-c2nn[nH]n2)n1 [Example 201, N-(2-(2-(2H-tetrazol-5-yl)phenyl)-6-(benzyl(propyl)amino)pyridin-4-yl)-2-(naphthalen-2-yl)acetamide] | 34.2 nM |
| CCCN(Cc1ccccc1)c1cc(NC(=O)Cc2ccccc2F)cc(-c2ccccc2-c2nn[nH]n2)n1 [Example 202, N-(2-(2-(2H-tetrazol-5-yl)phenyl)-6-(benzyl(propyl)amino)pyridin-4-yl)-2-(2-fluorophenyl)acetamide] | 202 nM |
| CCCN(Cc1ccccc1)c1cc(NC(=O)Cc2ccccc2OC)cc(-c2ccccc2-c2nn[nH]n2)n1 [Example 203, N-(2-(2-(2H-tetrazol-5-yl)phenyl)-6-(benzyl(propyl)amino)pyridin-4-yl)-2-(2-methoxyphenyl)acetamide] | 305 nM |
| CCCN(Cc1ccccc1)c1cc(NC(=O)Cc2cc(OC)ccc2OC)cc(-c2ccccc2-c2nn[nH]n2)n1 [Example 204, N-(2-(2-(2H-tetrazol-5-yl)phenyl)-6-(benzyl(propyl)amino)pyridin-4-yl)-2-(2,5-dimethoxyphenyl)acetamide] | 159 nM |
| CCCN(Cc1ccccc1)c1cc(NC(=O)Cc2ccccc2C(F)(F)F)cc(-c2ccccc2-c2nn[nH]n2)n1 [Example 205, N-(2-(2-(2H-tetrazol-5-yl)phenyl)-6-(benzyl(propyl)amino)pyridin-4-yl)-2-(2-(trifluoromethyl)phenyl)acetamide] | 80.2 nM |
| CCCN(Cc1ccccc1)c1cc(NC(=O)Cc2cccs2)cc(-c2ccccc2-c2nn[nH]n2)n1 [Example 206, N-(2-(2-(2H-tetrazol-5-yl)phenyl)-6-(benzyl(propyl)amino)pyridin-4-yl)-2-(thiophen-2-yl)acetamide] | 323 nM |
| CCCN(Cc1ccccc1)c1cc(NC(=O)Cc2c[nH]cn2)cc(-c2ccccc2-c2nn[nH]n2)n1 [Example 207, N-(2-(2-(2H-tetrazol-5-yl)phenyl)-6-(benzyl(propyl)amino)pyridin-4-yl)-2-(1H-imidazol-4-yl)acetamide] | 3430 nM |
| CCCN(Cc1ccccc1)c1cc(NC(=O)Cc2cc(OC)cc(OC)c2)cc(-c2ccccc2-c2nn[nH]n2)n1 [Example 208, N-(2-(2-(2H-tetrazol-5-yl)phenyl)-6-(benzyl(propyl)amino)pyridin-4-yl)-2-(3,5-dimethoxyphenyl)acetamide] | 544 nM |
| CCCN(Cc1ccccc1)c1cc(NC(=O)Cc2cnccn2)cc(-c2ccccc2-c2nn[nH]n2)n1 [Example 210, N-(2-(2-(2H-tetrazol-5-yl)phenyl)-6-(benzyl(propyl)amino)pyridin-4-yl)-2-(pyrazin-2-yl)acetamide] | 1710 nM |
| CCCN(Cc1ccccc1)c1cc(NC(=O)Cc2csc(C)n2)cc(-c2ccccc2-c2nn[nH]n2)n1 [Example 211, N-(2-(2-(2H-tetrazol-5-yl)phenyl)-6-(benzyl(propyl)amino)pyridin-4-yl)-2-(2-methylthiazol-4-yl)acetamide] | 906 nM |
| CCCN(Cc1ccccc1)c1cc(NC(=O)C(F)c2ccccc2)cc(-c2ccccc2-c2nn[nH]n2)n1 (stereo not drawn) [Example 212, N-(2-(2-(2H-tetrazol-5-yl)phenyl)-6-(benzyl(propyl)amino)pyridin-4-yl)-2-fluoro-2-phenylacetamide] | 224 nM |
